Key:
Assay type in all cases: in vivo
Design in all cases: key: 0 is no effect; 10 is complete control
rice (Oryza sativa) = assay: Test B flood test
Method in brief: (§1)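 Read-out is a visual response score from 0 (no effect) to 10 (complete control), assigned by comparison with untreated controls. Treatment was applied at the 2-leaf stage, and plants stayed in the greenhouse for twelve to sixteen days before scoring.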

[1] = tested on: bamyardgrass (Echinochloa crus-galli); assay: Test B flood test
Method in brief: as §1

[2] = tested on: duck salad (Heteranthera limosa); assay: Test B flood test
Method in brief: as §1

[3] = tested on: smallflower flatsedge (Cyperus difformis); assay: Test B flood test
Method in brief: as §1

[4] = tested on: sugar beet (Beta vulgaris); assay: Test B pre-/postemergence
Method in brief: (§2)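 Compounds in a surfactant-containing, non-phytotoxic solvent blend are applied to freshly planted seed (preemergence) and, concurrently, to seedlings of 2 to 18 cm at 1–4 leaves (postemergence). Plants stay in the greenhouse twelve to sixteen days and are then scored visually from 0 (no effect) to 10 (complete control).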

[5] = tested on: purple nutsedge (Cyperus rotundus); assay: Test B pre-/postemergence
Method in brief: as §2

[6] = tested on: bedstraw (Galium aparine); assay: Test B pre-/postemergence
Method in brief: as §2

wild oat (Avena fatua) = assay: Test B pre-/postemergence
Method in brief: as §2

corn (Zea mays) = assay: Test B pre-/postemergence
Method in brief: as §2

[7] = tested on: velvetleaf (Abutilon theophrasti); assay: Test B pre-/postemergence
Method in brief: as §2

[8] = tested on: broadleaf signalgrass (Brachiaria decumbens); assay: Test B pre-/postemergence
Method in brief: as §2

[9] = tested on: giant foxtail (Setaria faberii); assay: Test B pre-/postemergence
Method in brief: as §2

rape (Brassica napus) = assay: Test B pre-/postemergence
Method in brief: as §2

[10] = tested on: cocklebur (Xanthium strumarium); assay: Test B pre-/postemergence
Method in brief: as §2

soybean (Glycine max) = assay: Test B pre-/postemergence
Method in brief: as §2

[11] = tested on: blackgrass (Alopecurus myosuroides); assay: Test B pre-/postemergence
Method in brief: as §2

[12] = tested on: crabgrass (Digitaria sanguinalis); assay: Test B pre-/postemergence
Method in brief: as §2

[13] = tested on: wheat (Triticum aestivum); assay: Test B pre-/postemergence
Method in brief: as §2

[14] = tested on: pigweed (Amaranthus retroflexus); assay: Test B pre-/postemergence
Method in brief: as §2

[15] = tested on: momingglory (Ipomoea hederacea); assay: Test B pre-/postemergence
Method in brief: as §2

[16] = Rate 62 g/ha, Postemergence (flood test)
[17] = Rate 125 g/ha, Postemergence section (flood test species)
[18] = Rate 250 g/ha, Postemergence (flood test species)
[19] = Preemergence, Rate 62 g/ha, scale of 0 to 10

O=C(c1cccc(C(F)(F)F)c1)c1ccnc(-n2ccc(C(F)(F)F)n2)n1 [Compound 70]
2: Plant response rating, Sugarbeets ([4]; Rate 250 g/ha, Postemergence) | Plant response rating, Corn (corn (Zea mays); Rate 250 g/ha, Postemergence) | Cocklebur plant response rating ([10]; Rate 125 g/ha, Postemergence) | Plant response rating, Cocklebur ([10]; Rate 250 g/ha, Postemergence) | Soybean plant response rating (soybean (Glycine max); Rate 125 g/ha, Postemergence) | Redroot pigweed plant response rating ([14]; Rate 125 g/ha, Postemergence) | Plant response rating, Morningglory ([15]; Rate 250 g/ha, Postemergence)
1: Sugarbeets plant response rating ([4]; Rate 125 g/ha, Postemergence) | Bedstraw plant response rating ([6]; Rate 62 g/ha, Postemergence) | Bedstraw plant response rating ([6]; Rate 125 g/ha, Postemergence) | Plant response rating, Bedstraw ([6]; Rate 250 g/ha, Postemergence) | Corn plant response rating (corn (Zea mays); Rate 62 g/ha, Postemergence) | Corn plant response rating (corn (Zea mays); Rate 125 g/ha, Postemergence) | Velvetleaf plant response rating ([7]; Rate 125 g/ha, Postemergence) | Plant response rating, Velvetleaf ([7]; Rate 250 g/ha, Postemergence) | Plant response rating, B. signalgrass ([8]; Rate 250 g/ha, Postemergence) | Rape plant response rating (rape (Brassica napus); Rate 125 g/ha, Postemergence) | Plant response rating, Rape (rape (Brassica napus); Rate 250 g/ha, Postemergence) | Cocklebur plant response rating ([10]; Rate 62 g/ha, Postemergence) | Soybean plant response rating (soybean (Glycine max); Rate 62 g/ha, Postemergence) | Crabgrass plant response rating ([12]; Rate 125 g/ha, Postemergence) | Plant response rating, Crabgrass ([12]; Rate 250 g/ha, Postemergence) | Morningglory plant response rating ([15]; Rate 62 g/ha, Postemergence) | Morningglory plant response rating ([15]; Rate 125 g/ha, Postemergence)
3: Plant response rating, Soybean (soybean (Glycine max); Rate 250 g/ha, Postemergence) | Plant response rating, Redroot pigweed ([14]; Rate 250 g/ha, Postemergence)
0: Rice plant response rating (rice (Oryza sativa); [16]) | Rice plant response rating (rice (Oryza sativa); [17]) | Plant response rating, Rice (rice (Oryza sativa); [18]) | Barnyardgrass plant response rating [1, 16] | Barnyardgrass plant response rating [1, 17] | Plant response rating, Barnyardgrass [1, 18] | Ducksalad plant response rating [2, 16] | Ducksalad plant response rating [2, 17] | Plant response rating, Ducksalad [2, 18] | S. Flatsedge plant response rating [3, 16] | S. Flatsedge plant response rating [3, 17] | Plant response rating, S. Flatsedge [3, 18] | Plant response rating, Sugarbeets [4, 19] | Sugarbeets plant response rating ([4]; Rate 62 g/ha, Postemergence) | Plant response rating, Sugarbeets ([4]; Rate 125 g/ha, Preemergence) | Plant response rating, Sugarbeets ([4]; Rate 250 g/ha, Preemergence) | Plant response rating, Nutsedge [5, 19] | Nutsedge plant response rating ([5]; Rate 62 g/ha, Postemergence) | Nutsedge plant response rating ([5]; Rate 125 g/ha, Postemergence) | Plant response rating, Nutsedge ([5]; Rate 125 g/ha, Preemergence) | Plant response rating, Nutsedge ([5]; Rate 250 g/ha, Postemergence) | Plant response rating, Bedstraw [6, 19] | Plant response rating, Bedstraw ([6]; Rate 125 g/ha, Preemergence) | Plant response rating, Bedstraw ([6]; Rate 250 g/ha, Preemergence) | Plant response rating, Wild oats (wild oat (Avena fatua); [19]) | Wild oats plant response rating (wild oat (Avena fatua); Rate 62 g/ha, Postemergence) | Wild oats plant response rating (wild oat (Avena fatua); Rate 125 g/ha, Postemergence) | Plant response rating, Wild oats (wild oat (Avena fatua); Rate 125 g/ha, Preemergence) | Plant response rating, Wild oats (wild oat (Avena fatua); Rate 250 g/ha, Postemergence) | Plant response rating, Wild oats (wild oat (Avena fatua); Rate 250 g/ha, Preemergence) | Plant response rating, Corn (corn (Zea mays); [19]) | Plant response rating, Corn (corn (Zea mays); Rate 125 g/ha, Preemergence) | Plant response rating, Corn (corn (Zea mays); Rate 250 g/ha, Preemergence) | Plant response rating, Velvetleaf [7, 19] | Velvetleaf plant response rating ([7]; Rate 62 g/ha, Postemergence) | Plant response rating, Velvetleaf ([7]; Rate 125 g/ha, Preemergence) | Plant response rating, Velvetleaf ([7]; Rate 250 g/ha, Preemergence) | B. signalgrass plant response rating ([8]; Rate 62 g/ha, Postemergence) | B. signalgrass plant response rating ([8]; Rate 62 g/ha, Preemergence) | B. signalgrass plant response rating ([8]; Rate 125 g/ha, Postemergence) | Plant response rating, B. signalgrass ([8]; Rate 125 g/ha, Preemergence) | Plant response rating, B. signalgrass ([8]; Rate 250 g/ha, Preemergence) | Plant response rating, Giant foxtail [9, 19] | Giant foxtail plant response rating ([9]; Rate 62 g/ha, Postemergence) | Giant foxtail plant response rating ([9]; Rate 125 g/ha, Postemergence) | Plant response rating, Giant foxtail ([9]; Rate 125 g/ha, Preemergence) | Plant response rating, Giant foxtail ([9]; Rate 250 g/ha, Postemergence) | Plant response rating, Giant foxtail ([9]; Rate 250 g/ha, Preemergence) | Plant response rating, Rape (rape (Brassica napus); [19]) | Rape plant response rating (rape (Brassica napus); Rate 62 g/ha, Postemergence) | Plant response rating, Rape (rape (Brassica napus); Rate 125 g/ha, Preemergence) | Plant response rating, Rape (rape (Brassica napus); Rate 250 g/ha, Preemergence) | Plant response rating, Cocklebur [10, 19] | Plant response rating, Cocklebur ([10]; Rate 125 g/ha, Preemergence) | Plant response rating, Cocklebur ([10]; Rate 250 g/ha, Preemergence) | Plant response rating, Soybean (soybean (Glycine max); [19]) | Plant response rating, Soybean (soybean (Glycine max); Rate 125 g/ha, Preemergence) | Plant response rating, Soybean (soybean (Glycine max); Rate 250 g/ha, Preemergence) | Plant response rating, Blackgrass [11, 19] | Blackgrass plant response rating ([11]; Rate 62 g/ha, Postemergence) | Blackgrass plant response rating ([11]; Rate 125 g/ha, Postemergence) | Plant response rating, Blackgrass ([11]; Rate 125 g/ha, Preemergence) | Plant response rating, Blackgrass ([11]; Rate 250 g/ha, Postemergence) | Plant response rating, Blackgrass ([11]; Rate 250 g/ha, Preemergence) | Plant response rating, Crabgrass [12, 19] | Crabgrass plant response rating ([12]; Rate 62 g/ha, Postemergence) | Plant response rating, Crabgrass ([12]; Rate 125 g/ha, Preemergence) | Plant response rating, Crabgrass ([12]; Rate 250 g/ha, Preemergence) | Plant response rating, Wheat [13, 19] | Wheat plant response rating ([13]; Rate 62 g/ha, Postemergence) | Wheat plant response rating ([13]; Rate 125 g/ha, Postemergence) | Plant response rating, Wheat ([13]; Rate 125 g/ha, Preemergence) | Plant response rating, Wheat ([13]; Rate 250 g/ha, Postemergence) | Plant response rating, Wheat ([13]; Rate 250 g/ha, Preemergence) | Plant response rating, Redroot pigweed [14, 19] | Redroot pigweed plant response rating ([14]; Rate 62 g/ha, Postemergence) | Plant response rating, Redroot pigweed ([14]; Rate 125 g/ha, Preemergence) | Plant response rating, Redroot pigweed ([14]; Rate 250 g/ha, Preemergence) | Plant response rating, Morningglory [15, 19] | Plant response rating, Morningglory ([15]; Rate 125 g/ha, Preemergence) | Plant response rating, Morningglory ([15]; Rate 250 g/ha, Preemergence)
